Experimental data reported in patent US20080214800A1, “SIRT INHIBITORS THAT BIND TO NAD” (Elixir Pharmaceuticals, Inc., priority 2005, published 2008).

Test system: HeLa cell
Assay: HeLa cell apoptosis assay, Cell Death Detection ELISA plus kit
Assay type: cell-based
Set-up: unit not given here
Procedure: The following exemplary compounds were evaluated for their effect on a HeLa cell apoptosis assay using the Cell Death Detection ELISA plus kit from Roche Applied Science.

SMILES | average (HeLa apoptosis assay) (dose 0.5) | average (HeLa apoptosis assay) (dose 2.5) | average (HeLa apoptosis assay) (dose 10) | average (HeLa apoptosis assay) (dose 25)
Cn1c2c(c3cc(Cl)ccc31)C(C(N)=O)CCC2 (centres unmarked) [Compound 5] | 1.00 | 0.97 | 1.07 | 0.91
Oc1ccc(/C=C/c2cc(O)cc(O)c2)cc1 [Resveratol] | 0.83 | 0.84 | 1.01 | 0.56
